The text below walks through data of patent US12172974B2 (Biohaven Pharmaceutical Holding Company Ltd., priority 2012, dated 2024).

The structures appear in SMILES notation. Entries after “also recorded” stand apart in the source; their conditions may differ.

Data set [1] deals with Stage III and IV melanoma. To be noted: 14 days of treatment; cited from earlier work.
A short description of data set [2]: Metabolic stability in pooled mouse liver microsomes. In kind it is in vitro ADME. Conditions: mouse liver microsomes 0.5 mg/mL, 1 uM, 37° C., NADPH. Here is the method: (§1) Metabolic Stability: In vitro metabolic stability was determined in pooled mouse or human liver microsomes (BD Gentest) at a protein concentration of 0.5 mg/mL in reaction buffer (100 mM KH2PO4, pH 7.4 and 12 mM MgCl2). Each drug candidate was added to a final concentration of 1 uM. This mixture was pre-warmed to 37° C. for 10 minutes prior to starting the reaction with the addition of β-Nicotinamide adenine dinucleotide 2′-phosphate reduced (NADPH) to a final concentration of 1 mM. A parallel incubation lacking NADPH served as the control. After incubation for 30 min at 37° C., the reactions were quenched by the addition of acetonitrile containing 0.1% formic acid and internal standard, vortex mixed for 2 minutes and centrifuged at 4000 rpm for 10 minutes to pellet the precipitated protein. The resulting supernatant containing the drug candidate and its potential metabolites was diluted 5-fold with water containing 0.1% formic acid and submitted to LC-MS/MS analysis. […]
(§2) LC-MS/MS Analysis: An aliquot from each incubation was analyzed by LC-MS/MS with SRM detection in the positive ionization mode using an ABSciex API 5500 QTrap Mass Spectrometer interfaced via the ABSciex Turbo V IonSpray source (ESI) to an Eksigent ExpressHT LC system. […] A fast gradient, from 15 to 85% organic in 2.5 minutes, with run time of 5.0 minutes, and flow rate of 50 ul/min was utilized. Peak areas were integrated using MultiQuant v2.0 software from ABSciex.

Data set [3] can be described thus: Plasma stability in fresh mouse plasma. To be noted: 1 uM, 37° C. The class given is in vitro ADME. As to the method:
(§3) Plasma Stability: Assessment of plasma stability was carried out by individual incubations of drug candidates in fresh mouse or human control plasma at a concentration of 1 uM for 1 hour at 37° C. After which, the samples were de-proteinized by addition of 2 volumes of acetonitrile containing 0.1% formic acid and internal standard, vortex mixed for 2 minutes and centrifuged at 4000 rpm for 10 minutes to pellet precipitated protein. The resulting supernatant containing the drug candidates was diluted 5-fold with water containing 0.1% formic acid and submitted to LC-MS/MS analysis. All determinations were done in triplicate. […]
as §2

Data set [4] can be described thus: Plasma stability in fresh human plasma. In kind it is in vitro ADME. To be noted: 1 uM, 37° C. As to the method:
as §3, §2

Data set [5] in a line: Stability in Simulated Gastric Fluid (SGF). The class given is in vitro ADME. Conditions: 37° C., 0.01 mg/mL. As to the method: (§4) Stability in Simulated Gastric Fluid (SGF) and Simulated Intestinal Fluid (SIF). Procedure from Baudy et. al. (J. Med. Chem. 2009, 52, 771-778) used. The physiological stability of prodrugs was determined by examining the stability of the compound in SGF, and SIF at 37° C. The compounds were prepared in a 9:1 mixture of the appropriate test component (SGF, SIF) and acetonitrile to a final concentration of 0.01 mg/mL. The samples were thoroughly mixed and maintained at 37° C. Each sample was injected consecutively onto an Agilent 1100 system (Luna C18, 3 μm, 50 mm×3 mm; 1 mL/min; mobile phase of 0.1% trifluoroacetic acid in water/0.1% trifluoroacetic acid in acetonitrile) after a 3 h period. The percent remaining of prodrug was calculated by comparing the area of prodrug compound versus riluzole generated. The identities of the parent compounds and conversion products were confirmed by LC/MS.

Data set [6] in a line: Metabolic stability in pooled human liver microsomes. Conditions: human liver microsomes 0.5 mg/mL, 1 uM, 37° C., NADPH. The class given is in vitro ADME. As to the method:
as §1, §2

A short description of data set [7]: Stability in Simulated Intestinal Fluid (SIF). In kind it is in vitro ADME. Conditions: 37° C., 0.01 mg/mL. Here is the method: as §4

`Nc1nc2ccc(OC(F)(F)F)cc2s1` [riluzole, 6-(trifluoromethoxy)-1,3-benzothiazol-2-amine]: in data set [1], the “patients with clinical or radiologic evidence of tumor response” value is given as “four of twelve; also recorded: four of 12”.
Take `N[C@H](Cc1ccccc1)C(=O)Nc1nc2ccc(OC(F)(F)F)cc2s1` [Cpd 4, (R)-2-Amino-3-phenyl-N-(6-trifluoromethoxy-benzothiazol-2-yl)-propionamide]: the “Metabolic Stability mouse (30 minutes): percent of prodrug metabolized to riluzole” value in data set [2] stood at 12%. Moreover, in data set [3], the “Plasma Stability mouse (1 hour): percent of prodrug metabolized to riluzole” value (shortened to “Plasma Stability mouse (1 hour): percent”) is on record as 47%. Moreover, the “Plasma Stability Human (1 hour): percent of prodrug metabolized to riluzole” value (“Plasma Stability Human (1 hour): percent” below) in data set [4] was found to be 6%. The “SGF (3 hours): percent of prodrug metabolized to riluzole” value (from here on “SGF (3 hours): percent”) in data set [5] is given as 3%. In addition, the “Metabolic Stability human (30 minutes): percent of prodrug metabolized to riluzole” value in data set [6] is given as 18%. In addition, the “SIF (3 hours): percent of prodrug metabolized to riluzole” value (“SIF (3 hours): percent” for short) in data set [7] was 0%.
With `C[C@@H](N)C(=O)Nc1nc2ccc(OC(F)(F)F)cc2s1` [Cpd 2, (R)-2-Amino-N-(6-trifluoromethoxy-benzothiazol-2-yl)-propionamide], the “Metabolic Stability mouse (30 minutes): percent of prodrug metabolized to riluzole” value in data set [2] was 10%. Besides, in data set [3], the “Plasma Stability mouse (1 hour): percent” value was 36%. Also, the “Plasma Stability Human (1 hour): percent” value in data set [4] was 15%. Further, the “SGF (3 hours): percent” value in data set [5] is 0%. In addition, the “Metabolic Stability human (30 minutes): percent of prodrug metabolized to riluzole” value in data set [6] amounted to 4%. In data set [7], the “SIF (3 hours): percent” value is on record as 50%.
Consider `CNCCCCC(=O)Nc1nc2ccc(OC(F)(F)F)cc2s1` [Cpd 25, 5-Methylamino-pentanoic acid (6-trifluoromethoxy-benzothiazol-2-yl)-amide], for which the “Metabolic Stability mouse (30 minutes): percent of prodrug metabolized to riluzole” value in data set [2] came to 78%. The “Plasma Stability mouse (1 hour): percent” value in data set [3] stood at 0%. Further, the “Plasma Stability Human (1 hour): percent” value in data set [4] was determined as 0%. Besides, in data set [5], the “SGF (3 hours): percent” value is reported as 0%. For the same compound, the “Metabolic Stability human (30 minutes): percent of prodrug metabolized to riluzole” value in data set [6] came out at 0%. In data set [7], the “SIF (3 hours): percent” value is recorded as 0%.
Take `CC(C)(C)OC(=O)CCC(=O)Nc1nc2ccc(OC(F)(F)F)cc2s1` [Cpd 22, N-(6-Trifluoromethoxy-benzothiazol-2-yl)-succinamic acid tert-butyl ester]: the “Metabolic Stability mouse (30 minutes): percent of prodrug metabolized to riluzole” value in data set [2] is reported as 0%. In addition, the “Plasma Stability mouse (1 hour): percent” value in data set [3] is on record as 0%. Also, in data set [4], the “Plasma Stability Human (1 hour): percent” value was found to be 0%. Besides, in data set [5], the “SGF (3 hours): percent” value is 0%. Besides, in data set [6], the “Metabolic Stability human (30 minutes): percent of prodrug metabolized to riluzole” value turned out to be 21%. Besides, in data set [7], the “SIF (3 hours): percent” value is recorded as 0%.
With `NCCCCC(=O)Nc1nc2ccc(OC(F)(F)F)cc2s1` [Cpd 26, 5-Amino-pentanoic acid (6-trifluoromethoxy-benzothiazol-2-yl)-amide], the “Metabolic Stability mouse (30 minutes): percent of prodrug metabolized to riluzole” value in data set [2] was determined as 66%. Besides, the “Plasma Stability mouse (1 hour): percent” value in data set [3] is listed as 0%. Also, the “Plasma Stability Human (1 hour): percent” value in data set [4] is reported as 5%. Moreover, the “SGF (3 hours): percent” value in data set [5] is given as 0%. Further, in data set [6], the “Metabolic Stability human (30 minutes): percent of prodrug metabolized to riluzole” value is recorded as 19%. Moreover, the “SIF (3 hours): percent” value in data set [7] is 0%.
For `CCCOC(=O)Nc1nc2ccc(OC(F)(F)F)cc2s1` [Cpd 14, (6-Trifluoromethoxy-benzothiazol-2-yl)-carbamic acid propyl ester], in data set [2], the “Metabolic Stability mouse (30 minutes): percent of prodrug metabolized to riluzole” value is listed as 15%. For the same compound, the “Plasma Stability mouse (1 hour): percent” value in data set [3] is 0%. Further, in data set [4], the “Plasma Stability Human (1 hour): percent” value was found to be 0%. Further, in data set [5], the “SGF (3 hours): percent” value is 0%. For the same compound, the “Metabolic Stability human (30 minutes): percent of prodrug metabolized to riluzole” value in data set [6] came out at 34%. In addition, the “SIF (3 hours): percent” value in data set [7] is listed as 0%.
Turning to `CCOC(=O)Nc1nc2ccc(OC(F)(F)F)cc2s1` [Cpd 13, (6-Trifluoromethoxy-benzothiazol-2-yl)-carbamic acid ethyl ester], in data set [2], the “Metabolic Stability mouse (30 minutes): percent of prodrug metabolized to riluzole” value is given as 8%. Also, in data set [3], the “Plasma Stability mouse (1 hour): percent” value amounted to 0%. Moreover, in data set [4], the “Plasma Stability Human (1 hour): percent” value is 0%. Also, the “SGF (3 hours): percent” value in data set [5] is listed as 0%. For the same compound, the “Metabolic Stability human (30 minutes): percent of prodrug metabolized to riluzole” value in data set [6] is 7%. Also, the “SIF (3 hours): percent” value in data set [7] is 0%.
As to `CN(C)CCOC(=O)Nc1nc2ccc(OC(F)(F)F)cc2s1` [Cpd 18, (6-Trifluoromethoxy-benzothiazol-2-yl)-carbamic acid 2-dimethylamino-ethyl ester], the “Metabolic Stability mouse (30 minutes): percent of prodrug metabolized to riluzole” value in data set [2] is given as 13%. In data set [3], the “Plasma Stability mouse (1 hour): percent” value came out at 3%. For the same compound, the “Plasma Stability Human (1 hour): percent” value in data set [4] turned out to be 0%. The “SGF (3 hours): percent” value in data set [5] is 0%. For the same compound, in data set [6], the “Metabolic Stability human (30 minutes): percent of prodrug metabolized to riluzole” value was determined as 10%. In addition, the “SIF (3 hours): percent” value in data set [7] is 0%.
Turning to `CN(C)CCCOC(=O)Nc1nc2ccc(OC(F)(F)F)cc2s1` [Cpd 19, (6-Trifluoromethoxy-benzothiazol-2-yl)-carbamic acid 3-dimethylamino-propyl ester], the “Metabolic Stability mouse (30 minutes): percent of prodrug metabolized to riluzole” value in data set [2] is 71%. Moreover, in data set [3], the “Plasma Stability mouse (1 hour): percent” value stood at 0%. The “Plasma Stability Human (1 hour): percent” value in data set [4] was found to be 0%. Moreover, in data set [5], the “SGF (3 hours): percent” value is 0%. Also, the “Metabolic Stability human (30 minutes): percent of prodrug metabolized to riluzole” value in data set [6] worked out at 0%. For the same compound, the “SIF (3 hours): percent” value in data set [7] is on record as 0%.
Consider `COC(=O)Nc1nc2ccc(OC(F)(F)F)cc2s1` [Cpd 12, (6-Trifluoromethoxy-benzothiazol-2-yl)-carbamic acid methyl ester], for which the “Metabolic Stability mouse (30 minutes): percent of prodrug metabolized to riluzole” value in data set [2] stood at 10%. Further, the “Plasma Stability mouse (1 hour): percent” value in data set [3] amounted to 0%. In addition, in data set [4], the “Plasma Stability Human (1 hour): percent” value is listed as 15%. The “SGF (3 hours): percent” value in data set [5] is given as 0%. The “Metabolic Stability human (30 minutes): percent of prodrug metabolized to riluzole” value in data set [6] is reported as 0%. Further, the “SIF (3 hours): percent” value in data set [7] is on record as 0%.
With `CCCCOC(=O)Nc1nc2ccc(OC(F)(F)F)cc2s1` [Cpd 15, (6-Trifluoromethoxy-benzothiazol-2-yl)-carbamic acid butyl ester], the “Metabolic Stability mouse (30 minutes): percent of prodrug metabolized to riluzole” value in data set [2] came out at 53%. Moreover, in data set [3], the “Plasma Stability mouse (1 hour): percent” value is reported as 9%. Further, the “Plasma Stability Human (1 hour): percent” value in data set [4] is 0%. Also, in data set [5], the “SGF (3 hours): percent” value is on record as 0%. Further, in data set [6], the “Metabolic Stability human (30 minutes): percent of prodrug metabolized to riluzole” value was 13%. Besides, in data set [7], the “SIF (3 hours): percent” value is 0%.
